Measurements from US7928140B2, “Benzothiazole PI3 kinase modulators for cancer treatment” (Amgen Inc., priority 2007, dated 2011).
Where two headings read alike, the source gives them in different places.

Key:
PI3K α = target: T1, PI3K α (Homo sapiens, UniProt P42336); assay: In vitro PI3 kinase enzyme assay (alpha), ATP loss, bioluminescence; format: biochemical; details: read-out: PI3Kα ATP loss IC50;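 note: purified p110α/p85 heterodimer acting on PtdIns(4,5)P2 at room temperature, remaining ATP read by luminescence, inhibition scaled between compound-free wells with and without enzyme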
T1 construct: Full length p110 subunits of PI3K α, β and δ, N-terminally labeled with polyHis tag; polyHis (N); made in house; host or cells: Sf9 insect cells (baculovirus)
Description: (§1) Full length p110 subunits of PI3K α, β and δ, N-terminally labeled with polyHis tag, were co-expressed with p85 in baculovirus expression vectors in sf9 insect cells. P110/p85 heterodimers were purified by sequential Ni-NTA, Q-HP, and Superdex-100 chromatography. Purified α, β and δ isozymes were stored at −20° C. in 20 mM Tris, pH 8, 0.2M NaCl, 50% glycerol, 5 mM DTT, 2 mM Na cholate.
(§2) PI3K enzyme assays (alpha, beta, delta and gamma) were performed in 25 mL with the above final concentrations of components in white polypropylene plates (Costar catalogue #3355). Phosphatidyl inositol phosphoacceptor, PtdIns(4,5)P2 (eg. P4508) was obtained from Echelon Biosciences. The ATPase activity of the alpha and gamma isozymes was not greatly stimulated by PtdIns(4,5)P2 under these conditions and was therefore omitted from the assay of these isozymes. Test compounds were dissolved in DMSO and diluted with three-fold serial dilutions. The compound in DMSO (1 μL) was added per test well, and the inhibition relative to reactions containing no compound, with and without enzyme was determined. After assay incubation at RT, the reaction was stopped and residual ATP determined by addition of an equal volume of a commercial ATP bioluminescence kit (Perkin Elmer EasyLite) according to the manufacturer's instructions, and detected using an Analyst GT luminometer.

PI3K β = target: T2, PI3K β (Homo sapiens, UniProt P42338); assay: In vitro PI3 kinase enzyme assay (beta), ATP loss, bioluminescence; format: biochemical; details: read-out: PI3Kβ ATP loss IC50;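 note: purified p110β/p85 heterodimer with PtdIns(4,5)P2 as acceptor, incubated at room temperature, leftover ATP read by luminescence, inhibition scaled to compound-free wells with and without enzyme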
T2 construct: Full length p110 subunits of PI3K α, β and δ, N-terminally labeled with polyHis tag; polyHis (N); made in house; host or cells: Sf9 insect cells (baculovirus)
Description: as §1, §2

[1] = test system: phosphorylation of Serine 473 in Akt, HCT 116 human colon carcinoma cells; assay: Cell-based phospho-AKT Ser473 assay (MSD sandwich immunoassay, IGF-1 stimulated); details: Homo sapiens
Summary of the method: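 HCT116 cells, 16,000/well and plated overnight, were pre-treated with serially diluted compound for 2 h at 37 °C, then stimulated with IGF-1 at 100 ng/ml for 15 min. Lysates were assayed for Akt pSer473 by MSD sandwich electrochemiluminescence, and IC50 was derived from dose-response data.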

[2] = HCT-116, HCT 116 cells, read-out: HCT 116 pAKT IC50

T2 sequence (P42338 whole entry): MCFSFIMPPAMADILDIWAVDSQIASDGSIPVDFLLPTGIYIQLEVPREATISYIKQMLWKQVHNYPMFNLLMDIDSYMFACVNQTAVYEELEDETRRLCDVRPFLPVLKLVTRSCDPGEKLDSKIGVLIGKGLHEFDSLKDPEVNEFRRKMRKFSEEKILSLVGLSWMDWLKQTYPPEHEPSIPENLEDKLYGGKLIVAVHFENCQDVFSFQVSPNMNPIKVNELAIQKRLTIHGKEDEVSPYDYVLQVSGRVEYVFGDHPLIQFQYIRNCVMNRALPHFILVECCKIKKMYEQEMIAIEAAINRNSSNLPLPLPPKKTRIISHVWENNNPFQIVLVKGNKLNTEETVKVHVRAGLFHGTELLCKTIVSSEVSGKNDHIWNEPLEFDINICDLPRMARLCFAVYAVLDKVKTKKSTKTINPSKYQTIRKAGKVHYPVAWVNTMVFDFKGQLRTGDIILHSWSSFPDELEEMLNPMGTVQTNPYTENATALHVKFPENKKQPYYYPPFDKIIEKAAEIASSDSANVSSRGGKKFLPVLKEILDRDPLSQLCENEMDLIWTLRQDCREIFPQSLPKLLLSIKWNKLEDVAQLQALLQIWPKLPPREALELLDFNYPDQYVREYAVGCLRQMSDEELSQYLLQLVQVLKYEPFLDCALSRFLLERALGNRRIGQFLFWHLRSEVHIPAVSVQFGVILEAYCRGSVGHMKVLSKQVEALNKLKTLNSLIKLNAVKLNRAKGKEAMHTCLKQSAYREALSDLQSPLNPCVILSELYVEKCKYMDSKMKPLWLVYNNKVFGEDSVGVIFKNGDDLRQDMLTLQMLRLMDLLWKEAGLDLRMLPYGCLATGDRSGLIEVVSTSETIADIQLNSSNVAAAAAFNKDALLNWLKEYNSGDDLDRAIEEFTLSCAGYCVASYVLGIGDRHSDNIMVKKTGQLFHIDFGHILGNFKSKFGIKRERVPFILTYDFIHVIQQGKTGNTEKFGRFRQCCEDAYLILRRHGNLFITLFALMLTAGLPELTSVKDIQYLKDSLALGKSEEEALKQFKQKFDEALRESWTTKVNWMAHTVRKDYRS
T2 sequence (P27986 whole entry partner): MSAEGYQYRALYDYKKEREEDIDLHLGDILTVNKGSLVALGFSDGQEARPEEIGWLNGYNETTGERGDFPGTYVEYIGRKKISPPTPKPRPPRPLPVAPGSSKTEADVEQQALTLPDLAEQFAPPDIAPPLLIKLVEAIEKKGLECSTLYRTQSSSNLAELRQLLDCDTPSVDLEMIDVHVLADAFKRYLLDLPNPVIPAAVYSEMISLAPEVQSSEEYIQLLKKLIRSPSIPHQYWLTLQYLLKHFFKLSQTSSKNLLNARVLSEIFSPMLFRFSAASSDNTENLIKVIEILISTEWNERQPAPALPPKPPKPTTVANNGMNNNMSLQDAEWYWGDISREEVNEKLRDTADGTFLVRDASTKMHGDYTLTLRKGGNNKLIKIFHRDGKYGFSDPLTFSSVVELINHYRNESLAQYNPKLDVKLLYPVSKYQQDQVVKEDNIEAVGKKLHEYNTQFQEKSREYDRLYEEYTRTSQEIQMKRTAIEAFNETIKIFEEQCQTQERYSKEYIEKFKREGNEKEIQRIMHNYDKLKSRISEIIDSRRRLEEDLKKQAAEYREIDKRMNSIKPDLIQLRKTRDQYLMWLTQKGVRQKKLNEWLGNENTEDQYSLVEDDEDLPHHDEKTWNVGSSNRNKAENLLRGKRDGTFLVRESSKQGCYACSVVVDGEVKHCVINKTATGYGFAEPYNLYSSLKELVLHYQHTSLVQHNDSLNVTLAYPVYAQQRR
T1 sequence (P42336 whole entry, species assumed): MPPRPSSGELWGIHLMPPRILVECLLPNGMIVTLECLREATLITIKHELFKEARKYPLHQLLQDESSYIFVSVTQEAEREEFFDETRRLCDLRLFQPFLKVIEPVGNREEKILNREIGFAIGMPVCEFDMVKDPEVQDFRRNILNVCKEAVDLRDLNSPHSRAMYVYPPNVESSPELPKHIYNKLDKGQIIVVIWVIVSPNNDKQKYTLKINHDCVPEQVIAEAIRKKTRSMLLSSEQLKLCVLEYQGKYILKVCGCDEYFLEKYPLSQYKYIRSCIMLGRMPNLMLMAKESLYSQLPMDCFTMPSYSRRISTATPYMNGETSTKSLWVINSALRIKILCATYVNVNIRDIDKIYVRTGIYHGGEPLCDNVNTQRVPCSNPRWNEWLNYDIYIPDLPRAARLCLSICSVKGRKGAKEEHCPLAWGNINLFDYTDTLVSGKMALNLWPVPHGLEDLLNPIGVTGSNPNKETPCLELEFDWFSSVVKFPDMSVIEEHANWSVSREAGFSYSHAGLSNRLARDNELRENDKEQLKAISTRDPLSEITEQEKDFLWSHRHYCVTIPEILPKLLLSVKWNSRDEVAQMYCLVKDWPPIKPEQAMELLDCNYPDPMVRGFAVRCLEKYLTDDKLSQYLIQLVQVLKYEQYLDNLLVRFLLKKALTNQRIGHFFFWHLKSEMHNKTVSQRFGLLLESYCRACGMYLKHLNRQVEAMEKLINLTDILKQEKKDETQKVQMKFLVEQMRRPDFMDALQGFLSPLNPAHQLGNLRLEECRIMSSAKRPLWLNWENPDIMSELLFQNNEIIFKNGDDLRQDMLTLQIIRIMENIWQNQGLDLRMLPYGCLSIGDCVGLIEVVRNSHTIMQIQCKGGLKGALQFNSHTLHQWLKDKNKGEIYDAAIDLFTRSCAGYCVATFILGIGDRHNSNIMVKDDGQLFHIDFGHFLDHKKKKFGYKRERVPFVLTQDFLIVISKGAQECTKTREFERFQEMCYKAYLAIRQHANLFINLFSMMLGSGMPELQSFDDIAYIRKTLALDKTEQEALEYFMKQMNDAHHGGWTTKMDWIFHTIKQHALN
T1 sequence (P27986 whole entry partner, species assumed): as the sequence (P27986 whole entry partner) above

SMILES | IC50 (PI3K α) [nM] | IC50 (PI3K β) [nM] | IC50 [1, 2] [nM] | IC50 ([1]; HCT-116, read-out: HCT 116 pAKT IC50) [nM]
CC(=O)Nc1nc2ccc(-c3ccnc(N(C)S(=O)(=O)c4ccc(C)cc4C)n3)cc2s1 [Example 212, N-(6-(2-(N,2,4-trimethylphenylsulfonamido)pyrimidin-4-yl)benzo[d]thiazol-2-yl)acetamide] | 72.2 | 60.3 | 237 | –
CC(=O)Nc1nc2ccc(-c3ccnc(N(C)S(=O)(=O)c4ccc(C(F)(F)F)cc4)n3)cc2s1 [Example 213, N-(6-(2-(N-methyl-4-(trifluoromethyl)phenylsulfonamido)pyrimidin-4-yl)benzo[d]thiazol-2-yl)acetamide] | 91.3 | 119 | 92.8 | –
CC(=O)Nc1nc2ccc(-c3ccnc(N(C)S(=O)(=O)c4ccc5ccccc5c4)n3)cc2s1 [Example 214, N-(6-(2-(N-methylnaphthalene-2-sulfonamido)pyrimidin-4-yl)benzo[d]thiazol-2-yl)acetamide] | 74 | 86.2 | 256 | –
CC(=O)Nc1nc2ccc(-c3ccnc(NS(=O)(=O)c4ccc(C)cc4)c3)cc2s1 [Example 216, N-(6-(2-(4-methylphenylsulfonamido)pyridin-4-yl)benzo[d]thiazol-2-yl)acetamide] | 35.1 | 120 | 79.4 | –
CC(=O)Nc1nc2ccc(-c3cncc(N(C)S(=O)(=O)c4ccc(Cl)c(Cl)c4)c3)cc2s1 [Example 221, N-(6-(5-(3,4-dichloro-N-methylphenylsulfonamido)pyridin-3-yl)benzo[d]thiazol-2-yl)acetamide] | 79.2 | 2100 | 320 | –
CC(=O)Nc1nc2ccc(-c3cncc(N(C)S(=O)(=O)c4ccc(F)c(F)c4)c3)cc2s1 [Example 222, N-(6-(5-(3,4-difluoro-N-methylphenylsulfonamido)pyridin-3-yl)benzo[d]thiazol-2-yl)acetamide] | 377 | 2890 | 2180 | –
CC(=O)Nc1nc2ccc(-c3cncc(N(C)S(=O)(=O)c4ccc(C(C)(C)C)cc4)c3)cc2s1 [Example 223, N-(6-(5-(4-tert-butyl-N-methylphenylsulfonamido)pyridin-3-yl)benzo[d]thiazol-2-yl)acetamide] | 53.5 | 3820 | 417 | –
CC(=O)Nc1nc2ccc(-c3cncc(N(C)S(=O)(=O)c4ccccc4)c3)cc2s1 [Example 224, N-(6-(5-(N-methylphenylsulfonamido)pyridin-3-yl)benzo[d]thiazol-2-yl)acetamide] | 111 | 1490 | 145 | –
CC(=O)Nc1nc2ccc(-c3cccc(N(C)S(=O)(=O)c4cccc(C)c4)n3)cc2s1 [Example 225, N-(6-(6-(N,3-dimethylphenylsulfonamido)pyridin-2-yl)benzo[d]thiazol-2-yl)acetamide] | 64.7 | 294 | 244 | –
CC(=O)Nc1nc2ccc(-c3cncc(NS(=O)(=O)c4ccc(F)cc4)c3)nc2s1 [Example 228, N-(5-(5-(4-Fluorophenylsulfonamido)pyridin-3-yl)thiazolo[5,4-b]pyridin-2-yl)acetamide] | 7.5 | 55.9 | 54.9 | –
CC(=O)Nc1nc2ccc(-c3cnc(Cl)c(O[C@H]4CCOC4)c3)cc2s1 [Example 236, N-(6-(6-chloro-5-((S)-tetrahydrofuran-3-yloxy)pyridin-3-yl)benzo[d]thiazol-2-yl)acetamide] | 150 | 1370 | 828 | –
CCOc1cc(-c2ccc3nc(NC(C)=O)sc3c2)cnc1Cl [Example 239, N-(6-(6-chloro-5-ethoxypyridin-3-yl)benzo[d]thiazol-2-yl)acetamide] | 53.8 | 3790 | 2960 | –
COc1cc(-c2ccc3nc(NC(C)=O)sc3c2)cnc1Cl [Example 240, N-(6-(6-chloro-5-methoxypyridin-3-yl)benzo[d]thiazol-2-yl)acetamide] | 155 | 1280 | 643 | –
COc1ccncc1-c1ccc2nc(NC(C)=O)sc2c1 [Example 241, N-(6-(4-methoxypyridin-3-yl)benzo[d]thiazol-2-yl)acetamide] | 73.5 | 10700 | 816 | –
COc1ccc(-c2ccc3nc(NC(C)=O)sc3c2)cn1 [Example 242, N-(6-(6-methoxypyridin-3-yl)benzo[d]thiazol-2-yl)acetamide] | 73.9 | > 40000 | 636 | –
CC(=O)Nc1nc2ccc(-c3cnc(Cl)c(OC(F)F)c3)cc2s1 [Example 247, N-(6-(6-chloro-5-(difluoromethoxy)pyridin-3-yl)benzo[d]thiazol-2-yl)acetamide] | 19.5 | 244 | 93.9 | –
CC(=O)Nc1nc2ccc(-c3cnc(Cl)c(NS(=O)(=O)c4ccc(C(C)O)cc4)c3)cc2s1 (stereo not drawn) [Example 256, N-(6-(6-chloro-5-(4-(1-hydroxyethyl)phenylsulfonamido)pyridin-3-yl)benzo[d]thiazol-2-yl)acetamide] | 5.2 | 7.3 | 9.9 | –

SMILES | IC50 (PI3K α) [nM] | IC50 (PI3K β) [nM] | IC50 [1, 2] [nM] | IC50 ([1]; HCT-116, read-out: HCT 116 pAKT IC50) [nM]
CC(=O)Nc1nc2ccc(-c3cncc(NS(=O)(=O)c4ccc(C(C)O)cc4)c3)cc2s1 (stereo not drawn) [Example 259, N-(6-(5-(4-(1-hydroxyethyl)phenylsulfonamido)pyridin-3-yl)benzo[d]thiazol-2-yl)acetamide] | 12.1 | 32.2 | 388 | –
CC(=O)Nc1nc2ccc(-c3ccnc(NC4CCOCC4)n3)cc2s1 [Example 261, N-(6-(2-(tetrahydro-2H-pyran-4-ylamino)pyrimidin-4-yl)benzo[d]thiazol-2-yl)acetamide] | 900 | 13100 | 1700 | –
COc1ccc(S(=O)(=O)Nc2cc(-c3ccc4nc(NC(C)=O)sc4c3)cnc2C#N)cc1 [Example 267, N-(6-(6-cyano-5-(4-methoxyphenylsulfonamido)pyridin-3-yl)benzo[d]thiazol-2-yl)acetamide] | 14.5 | 20.9 | 1430 | –
CC(=O)Nc1nc2ccc(-c3cnc(C#N)c(N)c3)cc2s1 [Example 268, N-(6-(5-amino-6-cyanopyridin-3-yl)benzo[d]thiazol-2-yl)acetamide] | 241 | 17000 | 842 | –
CC(=O)Nc1nc2ccc(-c3cnc(Cl)c(N(C)C)c3)cc2s1 [Example 269, N-(6-(6-Chloro-5-(dimethylamino)pyridin-3-yl)benzo[d]thiazol-2-yl)acetamide] | 19.9 | 221 | 56.7 | –
CN(C)c1cc(-c2ccc3nc(NC(=O)Oc4ccccc4)sc3c2)cnc1Cl [Example 270, Phenyl 6-(6-chloro-5-(dimethylamino)pyridin-3-yl)benzo[d]thiazol-2-ylcarbamate] | 34.6 | 2460 | – | > 5000
COCC(=O)Nc1nc2ccc(-c3cnc(Cl)c(N(C)C)c3)cc2s1 [Example 271, N-(6-(6-Chloro-5-(dimethylamino)pyridin-3-yl)benzo[d]thiazol-2-yl)-2-methoxyacetamide] | 51.5 | 1230 | 312 | –
CN(C)c1cc(-c2ccc3nc(NC(=O)COc4ccccc4)sc3c2)cnc1Cl [Example 272, N-(6-(6-chloro-5-(dimethylamino)pyridin-3-yl)benzo[d]thiazol-2-yl)-2-phenoxyacetamide] | 58.9 | 1450 | > 5000 | –
CN(C)c1cc(-c2ccc3nc(N)sc3c2)cnc1Cl [Example 274, 6-(6-Chloro-5-(dimethylamino)pyridin-3-yl)benzo[d]thiazol-2-amine] | 191 | 613 | 985 | –
CN(C)CC(=O)Nc1nc2ccc(-c3cnc(Cl)c(N(C)C)c3)cc2s1 [Example 275, N-(6-(6-Chloro-5-(dimethylamino)pyridin-3-yl)benzo[d]thiazol-2-yl)-2-(dimethylamino)acetamide] | 311 | 2900 | 616 | –
CC(=O)Nc1nc2ccc(-c3cncc(OCC#N)c3)cc2s1 [Example 288, N-(6-(5-(Cyanomethoxy)pyridin-3-yl)benzo[d]thiazol-2-yl)acetamide] | 83.3 | 464 | 236 | –
CC(=O)Nc1nc2ccc(-c3cncc(F)c3)cc2s1 [Example 289, N-(6-(5-Fluoropyridin-3-yl)benzo[d]thiazol-2-yl)acetamide] | 96.3 | 3210 | 450 | –
CC(=O)Nc1nc2ccc(-c3cnc(Cl)c(O)c3)cc2s1 [Example 301, N-(6-(6-chloro-5-hydroxypyridin-3-yl)benzo[d]thiazol-2-yl)acetamide] | 5 | 94.1 | 100 | –
CC(=O)Nc1nc2ccc(-c3cnc(C(F)(F)F)c(O)c3)cc2s1 [Example 302, N-(6-(5-hydroxy-6-(trifluoromethyl)pyridin-3-yl)benzo[d]thiazol-2-yl)acetamide] | 8.5 | 159 | 157 | –
CC(=O)Nc1nc2ccc(-c3cnc(Cl)c(OC(C)=O)c3)cc2s1 [Example 303, 5-(2-acetamidobenzo[d]thiazol-6-yl)-2-chloropyridin-3-yl acetate] | 2 | 12.2 | 1.7 | –
Nc1nc2ccc(-c3cnc(Cl)c(NS(=O)(=O)c4cccc(OC(F)F)c4)c3)cc2s1 [Example 307, N-(5-(2-amino-1,3-benzothiazol-6-yl)-2-chloro-3-pyridinyl)-3-(difluoromethoxy)benzenesulfonamide] | 6.7 | 17.3 | 115 | –
